Reference: patent publication US20130065227A1, “METHODS OF INCREASING MACROPINOCYTOSIS IN CANCER CELLS” (priority 2010, published 2013)

Columns and labels:
several cell lines = assay: Annexin V / PI flow cytometry to assess cell death; format: cell-based
Procedure: (A) Trypan blue staining of U937 leukemia cells showing percentage of dead cells (trypan blue positive) over time. (B) U937 cells were untreated (Un) or treated with 1 μM AS1411 (1411) or control oligonucleotide (Ctrl) for 72 h. DNA was extracted, electrophoresed on an agarose gel and stained with ethidium bromide to probe DNA laddering. As a positive control, […] were treated with UV irradiation to induce apoptosis as previously described. […] (D) U937 cells treated as described for panel B, followed by protein extraction and immunoblotting (IB) to detect PARP cleavage and Caspase-3 activation. (E) DU145 prostate cancer cells were incubated with 10 μM of AS1411 for 24 h, or irradiated with UV (300 J/m^2 with UV Stratalinker 2400, Strategene), then cultured in fresh medium for 6 h. Assessment of cell death was carried out by flow cytometry to detect Annexin V-FITC binding and PI staining.

Hs27 = assay: Stimulation of macropinocytosis (dextran uptake); format: cell-based, human; details: Hs27; Non-cancer, skin fibroblasts
Procedure: (Panel A) DU145 cells were treated with 10 μM tAS1411 or 10 μM tCRO or no oligonucleotide in complete DMEM medium at 37° C. for the time indicated. After treatment, cell medium was changed for fresh complete medium containing 0.2 mg/ml dextran-10K labeled with Alexa Fluor 488, and cells were incubated for 30 min at 37° C. After incubation, cells were harvested and analyzed by flow cytometry to determine dextran uptake. (Panel B) The same experiment was performed using Hs27 cells. (Panel C) DU145 cells were treated with 10 μM tAS1411 or 10 μM tCRO or no oligonucleotide in complete DMEM medium at 37° C. for 48 h. […]
(§1) AS1411 causes a change in cancer cell morphology that is characterized by vacuolization, irregular nuclei, and swollen cells (Xu et al., 2001, J. Biol. Chem., 276:43221-30). […] To test this idea, DU145 cells were pre-treated for 24 h with tAS1411, then added FL-AS1411 and evaluated uptake after an additional 2 h using flow cytometry. […] This idea is not necessarily inconsistent with the time course data shown in FIG. 1A because the fluorescence signal may decrease over time for a number of reasons, including exocytosis of the ligand and fluorescence quenching due to protein binding or environmental factors (the fluorophore used for flow cytometry is particularly sensitive to acidic environments). […]

MCF10A [1] = assay: Uptake of AS1411 by macropinocytosis (MP); format: cell-based, human; details: Non-cancer, breast epithelial
From the text: It has recently been discovered that AS1411 can stimulate macropinocytosis (MP) in cancer cells and this finding was verified by several different methods and in multiple cancer cell lines (Table 1).

MCF10A [2] = assay: Stimulation of macropinocytosis (dextran uptake); format: cell-based, human; details: MCF10A; Non-cancer, breast epithelial
Procedure: FIG. 10 are graphs showing the stimulation of macropinocytosis by GROs. Breast carcinoma cells (MDA-MB-231, MCF-7) or non-malignant breast epithelial cells (MCF10A) cells were plated 18 hr before treatment with 10 μM tAS1411 or 10 μM tCRO or water in complete DMEM medium at 37° C. for 48 hr or 72 hr. After treatment, cell medium was changed for fresh complete medium containing 0.2 mg/ml dextran-10K labeled with Alexa Fluor 488 and cells were incubated for 30 min at 37° C. Cells were then incubated on ice with 1 mg/ml PI in PBS, harvested, and analyzed by flow cytometry. Uptake was normalized to no pre-treatment controls and bars show the mean and SE of three independent experiments. […]
as §1

DU145 cells = assay: Uptake of fluorescently labeled duplex siRNA after AS1411 pre-treatment; format: cell-based; details: 10 μM, 48 h
From the text: FIG. 18 is a graph showing the uptake of siRNA in the presence of AS1411.
Furthermore, due to the unique properties of MPsomes, delivery by MP leads to increased functional activity. Thus, treatment with AS1411, followed by administration of an anticancer siRNA, for example, leads to a synergistic increase in anticancer effects without harming normal cells. Another strategy to potentiate the effects of AS1411 is to combine it with agents that promote MP and activation of Rac. This leads to increased macropinocytic uptake of AS1411 and/or enhanced methuosis.

MDA-MB-231 = assay: Stimulation of macropinocytosis (dextran uptake); format: cell-based; details: MDA-MB-231; Cancer, breast
Procedure: (§2) FIG. 10 are graphs showing the stimulation of macropinocytosis by GROs. Breast carcinoma cells (MDA-MB-231, MCF-7) or non-malignant breast epithelial cells (MCF10A) cells were plated 18 hr before treatment with 10 μM tAS1411 or 10 μM tCRO or water in complete DMEM medium at 37° C. for 48 hr or 72 hr. After treatment, cell medium was changed for fresh complete medium containing 0.2 mg/ml dextran-10K labeled with Alexa Fluor 488 and cells were incubated for 30 min at 37° C. Cells were then incubated on ice with 1 mg/ml PI in PBS, harvested, and analyzed by flow cytometry. Uptake was normalized to no pre-treatment controls and bars show the mean and SE of three independent experiments.
(§3) To analyze uptake of the oligodeoxynucleotides or dextran-10K (macropinocytic marker) by flow cytometry, 2×10^5 cells in fresh supplemented culture medium (2.5 ml) were plated into 6-well plates for 18 h. After complete adhesion, the cells were incubated with 5′-FAM tagged oligodeoxynucleotides or Alexa Fluor 488 tagged dextran-10K and incubated as indicated in the Description of the Drawings. Cells were washed once with ice-cold PBS, incubated with 1 μg/ml 7-amino-actinomycin D (7-AAD) for 5 min on ice or 1 μg/ml propidium iodide (PI), and washed twice with ice-cold PBS. Cells were then treated with 0.01% trypsin/0.5 mM EDTA (300 μl) for 3 min prior addition 3 ml supplemented culture medium. The cells were then centrifuged and resuspended in 0.5 ml of 1% paraformaldehyde for analysis by flow cytometry using a FACScalibur cytometer (BD Biosciences, Mountain View, Calif.).
(§4) AS1411 causes a change in cancer cell morphology that is characterized by vacuolization, irregular nuclei, and swollen cells (Xu et al., 2001, J. Biol. Chem., 276:43221-30). Therefore, the effect of AS1411 on macropinocytosis in DU145 cells and non-malignant Hs27 cells was investigated. […] As in all of the flow cytometry experiments, cells were gated to exclude permeable cells, discounting the possibility that this increase was due to cell death. […] One implication of the finding that AS1411 causes hyperstimulation of macropinocytosis is that treatment of AS1411 might actually promote its own internalization by cancer cells. To test this idea, DU145 cells were pre-treated for 24 h with tAS1411, then added FL-AS1411 and evaluated uptake after an additional 2 h using flow cytometry. […] This idea is not necessarily inconsistent with the time course data shown in FIG. 1A because the fluorescence signal may decrease over time for a number of reasons, including exocytosis of the ligand and fluorescence quenching due to protein binding or environmental factors (the fluorophore used for flow cytometry is particularly sensitive to acidic environments). […]

MCF7 = assay: Stimulation of macropinocytosis (dextran uptake); format: cell-based; details: MCF7; Cancer, breast
Procedure: as §2, §3, §4

5′-d(GGTGGTGGTGGTTGTGGTGGTGGTGG) [AS1411]
Annexin V / PI quadrant in which cells appear (several cell lines): Annexin V-positive/propidium iodide (PI)-positive quadrant (indicative of necrosis)
Stimulate MP? (Hs27): No
Update by MP? (MCF10A [1]): Low
Stimulate MP? (MCF10A [2]): No
siRNA delivery after pre-treatment (DU145 cells): substantial increase in siRNA delivery
Stimulate MP? (MDA-MB-231): Yes
Stimulate MP? (MCF7): Yes
